# Measured values taken from patent US6407116B1, “Nitrogenous fused-ring compounds, process for the preparation of the same, and drugs” (Takeda Chemical Industries, Inc., priority 1997, dated 2002).
# Where a name gives a salt, the structure may show the parent alone.
# Experiments:
# [1] = test system: histamine-induced dermal vascular hyperpermeability; experiment: Effect on histamine-induced dermal vascular hyperpermeability in guinea pigs; format: in vivo, guinea pig; conditions: 3 mg/kg oral administration, 1 hour before intradermal histamine, male Hartley guinea pigs; for inhibition in vivo at 3 mg/kg: Cavia porcellus
# Protocol: Effect on Histamine-induced Dermal Vascular Hyperpermeability in Guinea Pigs
# Male Hartley guinea pigs (weighing about 500 g) were used. […] After 30 minutes, the animal was hit on its head to make it unconscious, and cut at its neck to sacrifice by exsanguination. The dorsal skin was peeled and examined for the long and short diameters (mm) of each blue spot which were then multiplied to give a product, which was averaged to give a vascular permeability index. Each substance was suspended in 5% gum arabic solution, and given orally in the volume of 0.2 ml/100 g body weight 1 hour before histamine administration. Control animals received the same volume of 5% gum arabic solution. A % inhibition of this reaction was calculated according to [Equation 1].
# % Inhibition of histamine-induced dermal vascular hyperpermeability=100×(1-vascular permeability index in treatment group/vascular permeability index in control group) [Equation 1]
# [2] = test system: guinea-pig eosinophils; experiment: Chemotaxis inhibition assay: LTB4-induced chemotaxis in guinea-pig eosinophils; format: cell-based; conditions: test substance 1×10^−5 M, LTB4 10^−8 M, 2 hours; for inhibition at 10 µM: Cavia porcellus, Eosinophil
# Protocol: 1) Guinea-pig Eosinophil Preparation
# Male Hartley guinea-pigs received 2 ml of equine serum (Bio-Whittaker, Inc) intraperitoneally once a week for successive 8 weeks. 48 hours after the last administration, 75 ml of physiological saline was injected into the peritoneal cavity, and the fluid was recovered and centrifuged at 400 G for 5 minutes. […] Erythrocytes in the isolated cell pellet, if any, were removed by hypotonic treatment (suspended in water for 30 seconds).
# 2) Chemotaxis Inhibition Assay
# 600 μl of LTB4 suspended in Hanks-Hepes-HSA (final concentration of 10^−8 M, Cascade Biochemical Ltd.) was placed in the lower compartment of a 24-well plate and kept at 37° C. for 30 minutes in a CO2 gas incubator. After mounting a Chemotaxicell (polycarbonate membrane, pore size 3 μm, thickness 10 μm), which served as an upper compartment, on the 24-well plate described above, 200 μl of eosinophil suspension (5×10^6 cells/ml), which had been incubated at 37° C. for 15 minutes in a thermostat chamber, was added to the upper compartment. After allowing to react for 2 hours in the CO2 gas incubator, the Chemotaxicell was removed, and 60 μl of 2% (w/v) EDTA solution in physiological saline was added to the lower compartment. After cooling on ice, the cells which underwent the chemotaxis into the lower compartment were counted using a blood cell counter (Coulter Counter (trade name)). In the procedure described above, the test substance was dissolved in N,N-dimethylformamide (DMF) and added to the upper and lower compartments at the final concentration of 10^−5 M.
# % Chemotaxis inhibition=[…] [Equation 2]
# The results are shown in [Table 2].
SMILES,inhibition in vivo at 3 mg/kg [1],melting point,inhibition at 10 µM [2],Inhibition of histamine-induced dermal vascular hyperpermeability (%) [1],Inhibition (%) of LTB4-induced chemotaxis [2]
"O=c1[nH]c(=O)n(CCCCN2CCC(OC(c3ccccc3)c3ccccc3)CC2)c2ccccc12 [Example 2, 2,4-Dioxo-1-[4-(4-diphenylmethoxy-1-piperidinyl)butyl]-1,2,3,4-tetrahydroquinazoline]",88%,131 to 133 °C,91%,,
"O=c1[nH]c(=O)n(CCCCN2CCC(OC(c3ccccc3)c3ccccc3)CC2)c2ccc([N+](=O)[O-])cc12 [Example 12, 2,4-Dioxo-1-[4-(4-diphenylmethoxypiperidino)butyl]-6-nitro-1,2,3,4-tetrahydroquinazoline]",80%,211 to 213 °C,66%,,
CCOC(=O)C(C)(C)n1c(=O)c2ccccc2n(CCCCN2CCC(OC(c3ccccc3)c3ccccc3)CC2)c1=O.Cl [Example 27],,,,94%,52%
COC(=O)C(C)(C)n1c(=O)c2ccccc2n(CCCCN2CCC(OC(c3ccccc3)c3ccccc3)CC2)c1=O.Cl [Example 30],,,,88%,77%
"CCOC(=O)C(C)(C)n1c(=O)c2cc(F)ccc2n(CCCCN2CCC(OC(c3ccccc3)c3ccccc3)CC2)c1=O [Example 33, Ethyl 2-[1-[4-(4-diphenylmethoxypiperidino)butyl]-2,4-dioxo-6-fluoro-1,2,3,4-tetrahydroquinazolin-3-yl]isobutyrate hydrochloride]",88%,,54%,,
"Nc1ccc2c(c1)c(=O)[nH]c(=O)n2CCCCN1CCC(OC(c2ccccc2)c2ccccc2)CC1 [Example 40, 6-Amino-2,4-dioxo-1-[4-(4-diphenylmethoxypiperidino)butyl]-1,2,3,4-tetrahydroquinazoline]",90%,131 to 133 °C,,,
"O=C(O)CCn1c(=O)c2ccccc2n(CCCCN2CCC(OC(c3ccccc3)c3ccccc3)CC2)c1=O [Example 52, 2,4-Dioxo-1-[4-(4-diphenylmethoxypiperidino)butyl]-1,2,3,4-tetrahydroquinazoline-3-propionic acid]",88%,107 to 108 °C,,,
"O=C(O)CCCCn1c(=O)c2ccccc2n(CCCCN2CCC(OC(c3ccccc3)c3ccccc3)CC2)c1=O [Example 60, 2,4-Dioxo-1-[4-(4-diphenylmethoxypiperidino)butyl]-1,2,3,4-tetrahydroquinazoline-3-valeric acid]",93%,,65%,,
"N#CCCCCn1c(=O)c2ccccc2n(CCCCN2CCC(OC(c3ccccc3)c3ccccc3)CC2)c1=O [Example 93, 2,4-Dioxo-1-[4-(4-diphenylmethoxypiperidino)butyl]-1,2,3,4-tetrahydroquinazoline-3-valeronitrile]",84%,,62%,,
"CCOC(=O)CCCCn1c(=O)c2ccccc2n(CCCCN2CCC(OC(c3ccccc3)c3ccccc3)CC2)c1=O [Example 94, Ethyl 2,4-dioxo-1-[4-(4-diphenylmethoxypiperidino)butyl]-1,2,3,4-tetrahydroquinazoline-3-valerate hydrochloride]",83%,,,,
"CCOC(=O)CCCCCn1c(=O)c2ccccc2n(CCCCN2CCC(OC(c3ccccc3)c3ccccc3)CC2)c1=O.Cl [Example 95, Ethyl 2,4-dioxo-1-[4-(4-diphenylmethoxypiperidino)butyl]-1,2,3,4-tetrahydroquinazoline-3-hexanoate hydrochloride]",85%,149 to 151 °C,,,
"CC(C)(C(=O)O)n1c(=O)c2ccccc2n(CCCCN2CCC(OC(c3ccccc3)c3ccccc3)CC2)c1=O [Example 120, 2-[2,4-Dioxo-1-[4-(4-diphenylmethoxypiperidino)butyl]-1,2,3,4-tetrahydroquinazolin-3-yl]isobutyric acid hydrochloride]",86%,,,,
"CC(C)(C(=O)O)n1c(=O)c2cc(F)ccc2n(CCCCN2CCC(OC(c3ccccc3)c3ccccc3)CC2)c1=O [Example 124, 2-[2,4-Dioxo-1-[4-(4-diphenylmethoxypiperidino)butyl]-6-fluoro-1,2,3,4-tetrahydroquinazolin-3-yl]isobutyric acid hydrochloride]",90%,,,,
"CC(C)(C(=O)O)n1c(=O)c2cc(F)c(F)cc2n(CCCCN2CCC(OC(c3ccccc3)c3ccccc3)CC2)c1=O [Example 125, 2-[2,4-Dioxo-1-[4-(4-diphenylmethoxypiperidino)butyl]-6,7-difluoro-1,2,3,4-tetrahydroquinazolin-3-yl]isobutyric acid hydrochloride]",81%,,,,
